Data as given in patent publication US20240124454A1, “TRICYCLIC COMPOUND AND USE THEREOF” (NANJING ZAIMING PHARMACEUTICAL CO., LTD., priority 2020, published 2024).
Like-named read-outs stand apart in the source and are kept apart here.

Tests used:
[1] = system: HCT116 WT cells; assay: Cell proliferation inhibition test (Cell-Titer Glo), HCT116 WT; format: cell-based, human; conditions: Homo sapiens, HCT-116, 144 h, 6 days, read-out: HCT116 WT Antiproliferative activity IC50
Experimental: (§1) Test Example 3. Cell Proliferation Inhibition Test of Human Colon Cancer HCT116 WT Cells and HCT116 MTAP-1-Cells
(§2) The brief introduction of the test principle: After the test MAT2A inhibitor was incubated with cancer cells for a period of time, the effect of the test compound on cell proliferation was measured using a cell proliferation count method based on the ATP content.
(§3) Reference: The experiment referred to the method disclosed in patent WO2018045071.
(§4) Material and cell: HCT116 WT cells and HCT116 MTAP^−/− cells were purchased from KYinno; fetal bovine serum, McCoy's 5a culture medium, and penicillin-streptomycin were purchased from Gibco Company (U.S.), 96-well plates were purchased from Corning Company (U.S.), and the Cell-Titer Glo reagent was purchased from Promega Company (U.S.).
(§5) Cell culture: HCT116 WT cells and HCT116 MTAP^−/− cells were cultured with a McCoy's 5a medium containing 10% fetal bovine serum+1% penicillin-streptomycin at 37° C. with 5% CO2.
(§6) Cells at logarithmic growth phase were available for the experiment.
(§7) Cell proliferation activity test: The Cell-Titer Glo reagent was used to test the compound for inhibitory activity on proliferation of both HCT116 WT and HCT116 MTAP^−/− cell strains. The cells were adjusted to a concentration of 400 cells per well, seeded on a 96-well plate, and incubated overnight at 37° C. with 5% CO2.
(§8) In the experimental group, the test compound was diluted sequentially with DMSO and a culture medium, and transferred to a cell plate at a final concentration of 10 μM, 3-fold dilution. The cells were continuously cultured at 37° C. with 5% CO2 for 6 days. The Cell-Titer Glo reagent was added and the cell activity was measured.
(§9) A negative control group and a positive control group were respectively used as Bottom and Top. The negative control group was not added with cells, only added with the culture medium in the same volume, and other operations were consistent with those of the experimental group. The positive control group was not added with the test compound, only added with DMSO in the same volume, and other operations were consistent with those of the experimental group.
(§10) The % Compound inhibition was calculated and fitted to give the IC50 of the compound.
(§11) % Compound inhibition=1-100%×(Signal−Bottom)/(Top−Bottom).
(§12) Signal referred to the signal value of the experimental group, Bottom referred to the average signal value of the negative control group, and Top referred to the average signal value of the positive control group.
(§13) HCT116 MTAP^−/− cells are cells not expressing MTAP protein obtained by site-directed knockout of wild type HCT116 (HCT116 WT) cells by gene knockout. Synthetic lethality will occur due to MAT2A inhibition and the deletion of MTAP, thereby causing tumor cell death. The activity and selectivity of the MAT2A inhibitor can be evaluated by testing the antiproliferative activity of the MAT2A inhibitor on human colon cancer HCT116 MTAP^−/− cells and human colon cancer HCT116 WT.

[2] = system: HCT116 MTAP^−/− cells; assay: Cell proliferation inhibition test (Cell-Titer Glo), HCT116 MTAP−/−; format: cell-based, human; conditions: Homo sapiens, HCT-116, 144 h, 6 days, read-out: HCT116 MTAP−/− Antiproliferative activity IC50
Experimental: as §1, §2, §3, §4, §5, §6, §7, §8, §9, §10, §11, §12, §13

[3] = biological target: MAT2A (Homo sapiens (Human), UniProt P31153); assay: MAT2A biochemical test (inorganic phosphate colorimetric, PiColorLock); conditions: read-out: MAT2A inhibitory Activity IC50
Sequence of MAT2A (P31153 whole entry): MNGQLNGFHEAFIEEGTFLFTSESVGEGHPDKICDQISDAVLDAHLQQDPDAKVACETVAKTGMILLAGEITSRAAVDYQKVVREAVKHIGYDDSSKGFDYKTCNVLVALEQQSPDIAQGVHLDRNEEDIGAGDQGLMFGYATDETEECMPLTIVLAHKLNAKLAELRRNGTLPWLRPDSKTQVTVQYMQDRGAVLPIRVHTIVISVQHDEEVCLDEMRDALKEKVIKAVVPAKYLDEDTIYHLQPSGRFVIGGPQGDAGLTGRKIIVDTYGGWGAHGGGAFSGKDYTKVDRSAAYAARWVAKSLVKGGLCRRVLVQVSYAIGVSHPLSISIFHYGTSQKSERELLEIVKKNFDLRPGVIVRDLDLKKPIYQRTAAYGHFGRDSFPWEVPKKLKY
Summary of the method: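 Compounds tested from 10 μM top concentration in 3-fold dilutions, preincubated 120 min at room temperature with MAT2A ([…] final) in Tris/KCl/MgCl2/EDTA/BSA buffer. Reaction started with […] L-methionine and 400 μM ATP, run 90 min at room temperature; phosphate read by PiColorLock after 30 min. IC50 fitted from % inhibition versus no-enzyme and DMSO controls.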

Compound | IC50 [1] | IC50 [2] | IC50 ([3]; class symbols) | IC50 ([3]; numeric values)
Cn1cnc2c(=O)n(-c3cccnc3)c3nc(C(F)(F)F)ccc3c21 [Compound 64, 1-methyl-5-(pyridin-3-yl)-7-(trifluoromethyl)-1,5-dihydro-4H-imidazo[4,5-c][1,8]naphthyridin-4-one] | 1050 nM | 398 nM | < 100 nM | –
COc1nc2c(=O)n(-c3ccccc3Cl)c3nc(C(F)(F)F)ccc3c2[nH]1 [Compound 5, 5-(2-chlorophenyl)-2-methoxy-7-(trifluoromethyl)-1,5-dihydro-4H-imidazo[4,5-c][1,8]naphthyridin-4-one] | > 10000 nM | 274 nM | < 100 nM | 41.6 nM
COc1ncccc1-n1c(=O)c2ncn(C)c2c2ccc(C(F)(F)F)nc21 [Compound 68, 5-(2-methoxypyridin-3-yl)-1-methyl-7-(trifluoromethyl)-1,5-dihydro-4H-imidazo[4,5-c][1,8]naphthyridin-4-one] | > 10000 nM | 394 nM | < 100 nM | 53.5 nM
Cn1cnc2c(=O)n(-c3cccnc3C3CC3)c3nc(C(F)(F)F)ccc3c21 (atropisomer, axis not shown) [Compound 42, 5-(2-cyclopropylpyridin-3-yl)-1-methyl-7-(trifluoromethyl)-1,5-dihydro-4H-imidazo[4,5-c][1,8]naphthyridin-4-one] | 2200 nM | 244 nM | < 100 nM | 47 nM
Cn1cnc2c(=O)n(-c3cccnc3C(F)(F)F)c3nc(C(F)(F)F)ccc3c21 (atropisomer, axis not shown) [Compound 41, 1-methyl-7-(trifluoromethyl)-5-(2-(trifluoromethyl)pyridin-3-yl)-1,5-dihydro-4H-imidazo[4,5-c][1,8]naphthyridin-4-one] | 7860 nM | 164 nM | < 100 nM | 56.8 nM
Cn1cnc2c(=O)n(-c3cccnc3C(F)(F)F)c3cc(Cl)ccc3c21 (single isomer, unassigned) [Compound 47-P2, 7-chloro-1-methyl-5-(2-(trifluoromethyl)pyridin-3-yl)-1,5-dihydro-4H-imidazo[4,5-c]quinolin-4-one] | 8330 nM | 130 nM | < 100 nM | 23.3 nM
Cc1ncccc1-n1c(=O)c2ncoc2c2ccc(C(F)(F)F)cc21 (single isomer, unassigned) [Compound 82-P2, 5-(2-methylpyridin-3-yl)-7-(trifluoromethyl)oxazolo[4,5-c]quinolin-4(5H)-one] | 271 nM | 50.2 nM | < 100 nM | 23.1 nM
[2H]C([2H])([2H])n1cnc2c(=O)n(-c3cccnc3C)c3nc(C(F)(F)F)ccc3c21 [Compound 72, 1-(methyl-d3)-5-(2-methylpyridin-3-yl)-7-(trifluoromethyl)-1,5-dihydro-4H-imidazo[4,5-c][1,8]naphthyridin-4-one] | 970 nM | 191 nM | < 100 nM | 52.1 nM
COc1c(F)cccc1-n1c(=O)c2ncn(C)c2c2ccc(C(F)(F)F)nc21 (single isomer, unassigned) [Compound 70-P2, 5-(3-fluoro-2-methoxyphenyl)-1-methyl-7-(trifluoromethyl)-1,5-dihydro-4H-imidazo[4,5-c][1,8]naphthyridin-4-one] | 7940 nM | 490 nM | < 100 nM | 37.9 nM
Cc1ccc2c3c(ncn3C)c(=O)n(-c3cccc(F)c3Cl)c2n1 [Compound 38, 5-(2-chloro-3-fluorophenyl)-1,7-dimethyl-1,5-dihydro-4H-imidazo[4,5-c][1,8]naphthyridin-4-one] | 605 nM | 130 nM | < 100 nM | 82 nM
Cc1ncccc1-n1c(=O)c2ncn(C)c2c2ccc(Cl)cc21 (single isomer, unassigned) [Compound 46-P2, 7-chloro-1-methyl-5-(2-methylpyridin-3-yl)-1,5-dihydro-4H-imidazo[4,5-c]quinolin-4-one] | 214 nM | 33 nM | < 100 nM | 19.8 nM
[2H]C([2H])([2H])n1cnc2c(=O)n(-c3cccc(F)c3Cl)c3nc(C(F)(F)F)ccc3c21 [Compound 44, 5-(2-chloro-3-fluorophenyl)-1-(methyl-d3)-7-(trifluoromethyl)-1,5-dihydro-4H-imidazo[4,5-c][1,8]naphthyridin-4-one] | 667 nM | 71.5 nM | < 100 nM | 49.5 nM
Cn1cnc2c(=O)n(-c3cccc(C#N)c3Cl)c3nc(C(F)(F)F)ccc3c21 (single isomer, unassigned) [Compound 73-P2, 2-chloro-3-(1-methyl-4-oxo-7-(trifluoromethyl)-1,4-dihydro-5H-imidazo[4,5-c][1,8]naphthyridin-5-yl)benzonitrile] | 2210 nM | 194 nM | < 100 nM | 27.3 nM
Cc1c(F)cccc1-n1c(=O)c2ncn(C)c2c2ccc(C(F)(F)F)nc21 (single isomer, unassigned) [Compound 43-P2, 5-(3-fluoro-2-methylphenyl)-1-methyl-7-(trifluoromethyl)-1,5-dihydro-4H-imidazo[4,5-c][1,8]naphthyridin-4-one] | 355 nM | 79 nM | < 100 nM | 28.2 nM
Cn1cnc2c(=O)n(-c3cccnc3C3CC3)c3cc(Cl)ccc3c21 (atropisomer, axis not shown) [Compound 49, 7-chloro-5-(2-cyclopropylpyridin-3-yl)-1-methyl-1,5-dihydro-4H-imidazo[4,5-c]quinolin-4-one] | 1620 nM | 87.9 nM | < 100 nM | 28.1 nM
O=c1c2ncoc2c2ccc(C(F)(F)F)nc2n1-c1cccnc1C1CC1 (atropisomer, axis not shown) [Compound 81, 5-(2-cyclopropylpyridin-3-yl)-7-(trifluoromethyl)oxazolo[4,5-c][1,8]naphthyridin-4(5H)-one] | 1940 nM | 186 nM | < 100 nM | 52.3 nM
Cc1ncccc1-n1c(=O)c2ncoc2c2ccc(Cl)cc21 (single isomer, unassigned) [Compound 83-P2, 7-chloro-5-(2-methylpyridin-3-yl)oxazolo[4,5-c]quinolin-4(5H)-one] | 203 nM | 54.3 nM | < 100 nM | 23.1 nM
O=c1c2nc(C(F)(F)F)[nH]c2c2ccc(C(F)(F)F)nc2n1-c1ccccc1Cl [Compound 9, 5-(2-chlorophenyl)-2,7-bis(trifluoromethyl)-1,5-dihydro-4H-imidazo[4,5-c][1,8]naphthyridin-4-one] | 4180 nM | 426 nM | < 100 nM | 29.6 nM
